From ChEMBL document CHEMBL2021794, “Synthesis, σ₁, σ₂-receptors binding affinity and antiproliferative action of new C1-substituted adamantanes” (Bioorg Med Chem, 2012)

Tests used:
HCT-116 = test: Growth inhibition of human HCT116 cells after 48 hrs by SRB assay; assay type: functional; settings: HCT-116, 48 h; for CC50: read-out: LC50 (the source's name)
HCT-15 = test: Growth inhibition of human HCT15 cells after 48 hrs by SRB assay; assay type: functional; settings: HCT-15, 48 h
DU-145 = test: Growth inhibition of human DU145 cells after 48 hrs by SRB assay; assay type: functional; settings: DU-145, 48 h
PC-3 = test: Growth inhibition of human PC3 cells after 48 hrs by SRB assay; assay type: functional; settings: PC-3, 48 h
MCF7 = test: Growth inhibition of human MCF7 cells after 48 hrs by SRB assay; assay type: functional; settings: MCF7, 48 h; for CC50: read-out: LC50 (the source's name)
IGROV-1 = test: Growth inhibition of human IGROV1 cells after 48 hrs by SRB assay; assay type: functional; settings: IGROV-1, 48 h; for CC50: read-out: LC50 (the source's name)
OVCAR-5 = test: Growth inhibition of human OVCAR5 cells after 48 hrs by SRB assay; assay type: functional; settings: OVCAR-5, 48 h; for CC50: read-out: LC50 (the source's name)
SF-268 = test: Growth inhibition of human SF268 cells after 48 hrs by SRB assay; assay type: functional; settings: SF-268, 48 h; for CC50: read-out: LC50 (the source's name)
SF-295 = test: Growth inhibition of human SF295 cells after 48 hrs by SRB assay; assay type: functional; settings: SF-295, 48 h
U-251 = test: Growth inhibition of human U251 cells after 48 hrs by SRB assay; assay type: functional; settings: U-251, 48 h
NCI-H460 = test: Growth inhibition of human NCI-H460 cells after 48 hrs by SRB assay; assay type: functional; settings: NCI-H460, 48 h
DMS-114 = test: Growth inhibition of human DMS114 cells after 48 hrs by SRB assay; assay type: functional; settings: DMS-114, 48 h; for CC50: read-out: LC50 (the source's name)
NCI-H69 = test: Growth inhibition of human NCI-H69 cells after 48 hrs by SRB assay; assay type: functional; settings: NCI-H69, 48 h
H69AR = test: Growth inhibition of human H69AR cells after 48 hrs by SRB assay; assay type: functional
HL-60(TB) = test: Growth inhibition of human HL-60(TB) cells after 48 hrs by SRB assay; assay type: functional; settings: HL-60, 48 h
BXPC-3 = test: Growth inhibition of human BxPC3 cells after 48 hrs by SRB assay; assay type: functional; settings: BXPC-3, 48 h
SK-HEP1 = test: Growth inhibition of human SKHEP1 cells after 48 hrs by SRB assay; assay type: functional; settings: SK-HEP1, 48 h; for CC50: read-out: LC50 (the source's name)
LOX IMVI = test: Growth inhibition of human LOXIMVI cells after 48 hrs by SRB assay; assay type: functional
[1] = (§1) Growth inhibition of HUVEC cells after 48 hrs by SRB assay; assay type: cell-based; settings: human, HUVEC cells
HUVEC = test: as §1; assay type: cell-based; settings: human, huvec, 48 h
[2] = Growth inhibition of human MSC cells after 48 hrs by SRB assay; assay type: cell-based; settings: for GI50 at 48 h: MSC cells; for LC50 / TGI: msc, 48 h
[3] = (§2) Growth inhibition of NHDF cells after 48 hrs by SRB assay; assay type: cell-based; settings: human, NHDF cells
NHDF = test: as §2; assay type: cell-based; settings: human, nhdf, 48 h
[4] = biological target: Sigma non-opioid intracellular receptor 1 (Homo sapiens, UniProt Q99720); test: Displacement of [3H](+)pentazocine from sigma-1 receptor expressed in human Jurkat cell membranes after 2 hrs by liquid scintillation spectroscopy
[5] = Displacement of [3H](+)1-DTG from sigma-2 receptor expressed in rat cerebral cortex membranes after 2 hrs by liquid scintillation spectroscopy; assay type: cell membranes, Membrane
[6] = Displacement of [3H]BTX-B from Na+ channel site 2 after 60 mins by liquid scintillation spectroscopy
[7] = Selectivity ratio of IC50 for human sigma-1 receptor to IC50 for rat sigma-2 receptor
MIA PaCa-2 = test: Growth inhibition of human MIAPaCa2 cells after 48 hrs by SRB assay; assay type: functional; settings: MIA PaCa-2, 48 h; for CC50: read-out: LC50 (the source's name)
[8] = read-out: LC50 (the source's name)

Sequence of Sigma non-opioid intracellular receptor 1 (Q99720 whole entry): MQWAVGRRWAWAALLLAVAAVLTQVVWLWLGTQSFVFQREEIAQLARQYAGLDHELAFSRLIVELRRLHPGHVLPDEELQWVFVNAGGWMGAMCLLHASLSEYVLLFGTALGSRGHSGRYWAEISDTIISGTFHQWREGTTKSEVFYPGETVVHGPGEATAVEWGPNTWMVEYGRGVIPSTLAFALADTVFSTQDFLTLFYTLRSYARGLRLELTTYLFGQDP

CCN1CCN(c2ccc(C(c3ccccc3)C34CC5CC(CC(C5)C3)C4)cc2)CC1 (configuration not stated)
GI50 (HCT-116): 6.39 µM
TGI (HCT-116): 32.9 µM
CC50 (HCT-116): 100 µM
GI50 (HCT-15): 6.63 µM
LC50 (HCT-15): 100 µM
TGI (HCT-15): 41.2 µM
GI50 (DU-145): 17.8 µM
TGI (DU-145): 58.7 µM
CC50 (DU-145; [8]): 99.6 µM
GI50 (PC-3): 9.01 µM
TGI (PC-3): 65.6 µM
CC50 (PC-3; [8]): 100 µM
GI50 (MCF7): 9.23 µM
TGI (MCF7): 59 µM
CC50 (MCF7): 100 µM
GI50 (IGROV-1): 8 µM
TGI (IGROV-1): 49 µM
CC50 (IGROV-1): 100 µM
GI50 (OVCAR-5): 6 µM
TGI (OVCAR-5): 24.5 µM
CC50 (OVCAR-5): 77.8 µM
GI50 (SF-268): 8.24 µM
TGI (SF-268): 53.5 µM
CC50 (SF-268): 100 µM
GI50 (SF-295): 19.6 µM
TGI (SF-295): 50.9 µM
CC50 (SF-295; [8]): 82.2 µM
GI50 (U-251): 4.23 µM
TGI (U-251): 7.42 µM
CC50 (U-251; [8]): 12 µM
GI50 (NCI-H460): 5.77 µM
LC50 (concentration killing 50% of cells) (NCI-H460): 100 µM
TGI (NCI-H460): 9.44 µM
GI50 (DMS-114): 6.05 µM
TGI (DMS-114): 11.6 µM
CC50 (DMS-114): 20.3 µM
GI50 (NCI-H69): 5.54 µM
CC50 (NCI-H69; [8]): 100 µM
GI50 (H69AR): 4.75 µM
TGI (H69AR): 7.82 µM
CC50 (H69AR; [8]): 100 µM
GI50 (HL-60(TB)): 6.39 µM
LC50 (HL-60(TB)): 100 µM
TGI (HL-60(TB)): 100 µM
GI50 (BXPC-3): 7.07 µM
LC50 (BXPC-3): > 100 µM
TGI (BXPC-3): 41.6 µM
GI50 (SK-HEP1): 3.98 µM
TGI (SK-HEP1): 7.24 µM
CC50 (SK-HEP1): 29.8 µM
GI50 (LOX IMVI): 3.79 µM
LC50 (concentration killing 50% of cells) (LOX IMVI): 8.4 µM
TGI (LOX IMVI): 6.09 µM
GI50 at 48 h [1]: 3.56 µM
LC50 (HUVEC): 9.88 µM
TGI (HUVEC): 6.72 µM
GI50 at 48 h [2]: 19.5 µM
LC50 [2]: 100 µM
TGI [2]: 72 µM
GI50 at 48 h [3]: 7.43 µM
LC50 (NHDF): 100 µM
TGI (NHDF): 100 µM
IC50 [4]: 2.9 nM
IC50 [5]: 4 nM
IC50 [6]: 700 nM
Ratio IC50 [7]: 1.4

c1ccc(CN2CCN(c3ccc(C(c4ccccc4)C45CC6CC(CC(C6)C4)C5)cc3)CC2)cc1 (configuration not stated)
GI50 (HCT-116): 12 µM
TGI (HCT-116): 100 µM
CC50 (HCT-116): 100 µM
GI50 (MCF7): 22.3 µM
TGI (MCF7): 99.4 µM
CC50 (MCF7): 100 µM
GI50 (OVCAR-5): 84.3 µM
TGI (OVCAR-5): 100 µM
CC50 (OVCAR-5): 100 µM
CC50 (SF-268): 100 µM
GI50 (NCI-H460): 54.7 µM
LC50 (concentration killing 50% of cells) (NCI-H460): 100 µM
TGI (NCI-H460): 100 µM
GI50 (MIA PaCa-2): 14.9 µM
TGI (MIA PaCa-2): 100 µM
CC50 (MIA PaCa-2): 100 µM
GI50 (BXPC-3): 7.51 µM
LC50 (BXPC-3): 100 µM
TGI (BXPC-3): 52.1 µM
GI50 (SK-HEP1): 23.5 µM
TGI (SK-HEP1): 100 µM
CC50 (SK-HEP1): 100 µM
GI50 at 48 h [1]: 76.8 µM
LC50 (HUVEC): 100 µM
TGI (HUVEC): 100 µM
IC50 [4]: 63.3 nM
IC50 [5]: 119 nM
IC50 [6]: 1600 nM
Ratio IC50 [7]: 1.9

c1ccc(C(c2ccc(N3CCOCC3)cc2)C23CC4CC(CC(C4)C2)C3)cc1 (configuration not stated)
TGI (HCT-116): 100 µM
CC50 (HCT-116): 100 µM
TGI (MCF7): 100 µM
CC50 (MCF7): 100 µM
TGI (OVCAR-5): 100 µM
CC50 (OVCAR-5): 100 µM
CC50 (SF-268): 100 µM
LC50 (concentration killing 50% of cells) (NCI-H460): 100 µM
TGI (NCI-H460): 100 µM
LC50 (BXPC-3): 100 µM
TGI (BXPC-3): 100 µM
IC50 [4]: > 100 nM
IC50 [5]: > 1000 nM
IC50 [6]: > 10000 nM

c1ccc(C(c2ccc(N3CCNCC3)cc2)C23CC4CC(CC(C4)C2)C3)cc1 (configuration not stated)
GI50 (HCT-116): 3.67 µM
TGI (HCT-116): 6.54 µM
CC50 (HCT-116): 9.41 µM
GI50 (HCT-15): 3.4 µM
LC50 (HCT-15): 8.9 µM
TGI (HCT-15): 6.15 µM
GI50 (MCF7): 2.49 µM
TGI (MCF7): 5.59 µM
CC50 (MCF7): 8.68 µM
GI50 (IGROV-1): 3.32 µM
TGI (IGROV-1): 6.1 µM
CC50 (IGROV-1): 8.89 µM
GI50 (OVCAR-5): 4.27 µM
TGI (OVCAR-5): 7.33 µM
CC50 (OVCAR-5): 10.4 µM
GI50 (SF-268): 3.45 µM
TGI (SF-268): 6.11 µM
CC50 (SF-268): 8.76 µM
GI50 (NCI-H460): 3.74 µM
LC50 (concentration killing 50% of cells) (NCI-H460): 9.7 µM
TGI (NCI-H460): 6.72 µM
GI50 (DMS-114): 3.97 µM
TGI (DMS-114): 6.51 µM
CC50 (DMS-114): 9.05 µM
GI50 (HL-60(TB)): 5.97 µM
LC50 (HL-60(TB)): 100 µM
TGI (HL-60(TB)): 9.92 µM
GI50 (BXPC-3): 3.61 µM
LC50 (BXPC-3): 9.05 µM
TGI (BXPC-3): 6.33 µM
GI50 (SK-HEP1): 3.91 µM
TGI (SK-HEP1): 6.48 µM
CC50 (SK-HEP1): 9.04 µM
GI50 (LOX IMVI): 2.79 µM
LC50 (concentration killing 50% of cells) (LOX IMVI): 8.11 µM
TGI (LOX IMVI): 5.45 µM
GI50 at 48 h [1]: 4.8 µM
LC50 (HUVEC): 100 µM
TGI (HUVEC): 7.62 µM
GI50 at 48 h [2]: 4.87 µM
LC50 [2]: 9.33 µM
TGI [2]: 7.1 µM
GI50 at 48 h [3]: 2.97 µM
LC50 (NHDF): 9.49 µM
TGI (NHDF): 6.23 µM
IC50 [4]: 12.4 nM
IC50 [5]: > 1000 nM
IC50 [6]: 1200 nM

c1ccc(C(c2ccc(N3CCN(C4CCCCC4)CC3)cc2)C23CC4CC(CC(C4)C2)C3)cc1 (configuration not stated)
GI50 (HCT-116): 22.2 µM
TGI (HCT-116): 100 µM
CC50 (HCT-116): 100 µM
GI50 (MCF7): 8.7 µM
TGI (MCF7): 55 µM
CC50 (MCF7): 100 µM
GI50 (OVCAR-5): 55.4 µM
TGI (OVCAR-5): 98.2 µM
CC50 (OVCAR-5): 100 µM
GI50 (SF-268): 53.1 µM
TGI (SF-268): 99.8 µM
CC50 (SF-268): 100 µM
GI50 (NCI-H460): 47.3 µM
LC50 (concentration killing 50% of cells) (NCI-H460): 100 µM
TGI (NCI-H460): 100 µM
GI50 (MIA PaCa-2): 20.2 µM
TGI (MIA PaCa-2): 66.1 µM
CC50 (MIA PaCa-2): 100 µM
GI50 (BXPC-3): 8.58 µM
LC50 (BXPC-3): 100 µM
TGI (BXPC-3): 76.8 µM
IC50 [4]: 0.27 nM
IC50 [5]: 97 nM
IC50 [6]: 700 nM
Ratio IC50 [7]: 360
